The text below walks through data of ChEMBL document CHEMBL3232918, “Core modification of substituted piperidines as novel inhibitors of HDM2-p53 protein-protein interaction” (Bioorg Med Chem Lett, 2014).

The subject of one series is SJSA-1. Nature of the series: Antiproliferative activity against human SJSA1 cells.
Series [1] can be described thus: AUC in mouse at 20 mg/kg, iv and 20 mg/kg, po. The note with it: plasma. In kind it is ADME, organism-based.
A short description of series [2]: Oral bioavailability in mouse at 20 mg/kg. In kind it is ADME, organism-based. The note with it: in vivo.
The nature of series [3]: Permeability of the compound in human Caco2 cells. To be noted: Caco-2, read-out: permeability. Type of series: ADME, cell-based. (Passage across Caco-2 layers is used to estimate intestinal permeability.)
The target of series [4] is E3 ubiquitin-protein ligase Mdm2 (Homo sapiens, UniProt Q00987). Nature of the series: Binding affinity to HDM2 (unknown origin) by fluorescence polarization peptide displacement assay. (Polarisation of emitted light reports the rotation of a fluorescent probe.)

Bounds are passed on as bounds.

E3 ubiquitin-protein ligase Mdm2, sequence (Q00987 whole entry): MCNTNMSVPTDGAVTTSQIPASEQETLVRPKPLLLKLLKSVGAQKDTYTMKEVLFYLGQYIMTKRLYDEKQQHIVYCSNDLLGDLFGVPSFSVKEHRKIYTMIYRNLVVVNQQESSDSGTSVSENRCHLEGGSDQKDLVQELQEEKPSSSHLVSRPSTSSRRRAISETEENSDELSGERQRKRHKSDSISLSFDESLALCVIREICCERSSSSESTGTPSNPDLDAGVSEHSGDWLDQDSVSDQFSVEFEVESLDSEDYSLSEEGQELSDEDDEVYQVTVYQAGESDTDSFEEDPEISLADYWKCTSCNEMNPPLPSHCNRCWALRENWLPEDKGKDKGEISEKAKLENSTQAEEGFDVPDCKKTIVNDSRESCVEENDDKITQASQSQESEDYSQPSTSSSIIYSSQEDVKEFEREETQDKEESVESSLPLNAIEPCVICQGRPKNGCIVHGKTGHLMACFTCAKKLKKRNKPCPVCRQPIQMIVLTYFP

By IC50 is commonly meant the point on the concentration scale where inhibition reaches its midpoint. Lower therefore signals inhibition by little substance. With `C=CC[C@H]1N(C(=O)c2cnccc2C(F)(F)F)CCC[C@@]1(Oc1ccc(C(F)(F)F)cc1)C(=O)N1CCN(c2ccccc2OCCOC)CC1`, in the series with SJSA-1, the IC50 came to 1 µM.
Broadly, the AUC is the area under the concentration-time curve, a measure of exposure. A low value points to less exposure. A word on the bioavailability: it is dose-corrected exposure relative to a reference, in per cent. In series [1], `COc1ccccc1N1CCN(C(=O)[C@]2(Oc3ccc(C(F)(F)F)cc3)CCCN(C(=O)c3cnccc3C(F)(F)F)C2)CC1` had an AUC of 1.9 µM·h. Moreover, the IC50 with SJSA-1 came to 5.5 µM. In series [2], this compound gave a bioavailability of 19%. Further, the Papp in series [3] is 15.8 ×10⁻⁶ cm/s.
The matching figures for `COCCOc1ccccc1N1CCN(C(=O)[C@]2(Oc3ccc(C(F)(F)F)cc3)CCCN(C(=O)c3cnccc3C(F)(F)F)C2)CC1`: 1.1 µM·h, 4.7 µM, 32% and 20.3 ×10⁻⁶ cm/s.
In turn, `COCCOc1ccccc1N1CCN(C(=O)[C@]2(Oc3ccc(C(F)(F)F)cc3)CC[C@H](c3ccccc3)N(C(=O)c3cnccc3C(F)(F)F)C2)CC1` displayed an IC50 in series [4] above 10 µM.
The compound `COc1ccc(C2=N[C@@H](c3ccc(Cl)cc3)[C@@H](c3ccc(Cl)cc3)N2C(=O)N2CCNC(=O)C2)c(OC(C)C)c1` [NUTLIN-3] registered a half-inhibitory concentration (IC50) in the series with SJSA-1 of 1.9 µM. In series [3], the Papp is 12.6 ×10⁻⁶ cm/s.
